This is an account of results in patent publication US20040242579A1, “Triazine derivatives and their use as sunscreens” (priority 2001, published 2004).

The series in a line: UV absorption (λmax, molar extinction ε, extinction value E 1%, 1 cm) of the triazine UV filters. It is filed as physicochemical.
[1] abbreviates: at λmax 320 nm, solvent not stated.
Setting [2] is: second band at 224 nm, solvent not stated.

Regarding `CCOC(=O)/C(=C\Nc1nc(N/C=C(\C(C)=O)C(=O)OCC)nc(-c2ccccc2)n1)C(C)=O` [Example 4], for the setting “at λmax, in ethanol”, the “E (1%, 1 cm)” value was determined as 983 and the ε was determined as 46000 L/mol/cm. For the same compound, the λmax (in ethanol) is 319 nm.
Regarding `CC1(C)CC(=O)C(=CNc2nc(NC=C3C(=O)CC(C)(C)CC3=O)nc(-c3ccccc3)n2)C(=O)C1` [Example 1], under setting [1], the “E (=extinction value) (1%, 1 cm)” value amounted to 1045 and the ε came to 51000 L/mol/cm. Under “main band, solvent not stated”, this compound displayed a λmax of 320 nm. Under setting [2], the “E (1%, 1 cm)” value was 732 and the ε turned out to be 35700 L/mol/cm. The γmax (second band, solvent not stated) is 224 nm.
For `CCOC(=O)/C(=C\Nc1nc(N/C=C(\C(C)=O)C(=O)OCC)nc(N/C=C(\C(C)=O)C(=O)OCC)n1)C(C)=O` [Example 5], under “at λmax, in dioxane”, the “E (1%, 1 cm)” value came out at 1350. The compound also yielded a λmax (in dioxane) of 325 nm.
Turning to `CC(=O)C(=CNc1nc(NC=C(C(C)=O)C(C)=O)nc(-c2ccccc2)n1)C(C)=O` [Example 2], for the setting “at λmax, in ethanol”, the “E (1%, 1 cm)” value is listed as 1053 and the ε amounted to 42900 L/mol/cm. Besides, the λmax (in ethanol) turned out to be 322 nm.
As for `CC1(C)OC(=O)C(=CNc2nc(NC=C3C(=O)OC(C)(C)OC3=O)nc(NC=C3C(=O)OC(C)(C)OC3=O)n2)C(=O)O1` [Example 6], under “at λmax, in dioxane”, the “E (1%, 1 cm)” value came to 1053 and the ε is on record as 61 956. For the same compound, the λmax (in dioxane) was found to be 326 nm.
Consider `CC1(C)OC(=O)C(=CNc2nc(NC=C3C(=O)OC(C)(C)OC3=O)nc(-c3ccccc3)n2)C(=O)O1` [Example 3], for which, for the setting “at λmax, in dioxane”, the “E (1%, 1 cm)” value turned out to be 1374 and the ε is 68000 L/mol/cm. The same compound registered a λmax (in dioxane) of 332 nm.
